Data set [1] has as its system Leukotriene B4 (LTB4) production. Nature of the data set: Assay for Leukotriene B4 (LTB4) inhibition in A23187-induced polymorphonuclear leukocytes (PMNs). The format is cell-based. The note with it: human PMNs, 10 μM A23187 induction. Here is the method:
Human blood was collected from healthy volunteers from a peripheral vein in the presence of 2 mM EDTA. Plasma was separated by centrifugation at 1000 rpm for 10 minutes, and the residual cell pellet was resuspended in RPMI medium supplemented with 10% FBS and 2 mM EDTA. Thirty milliliters of blood cell suspension was carefully overlayed onto 15 mL of Ficoll/Lymphoprep in a 50 mL falcon tube in the dark, and the tube was centrifuged at 350×g for 30 minutes without using the brake. After removing the peripheral blood mononuclear cells (PBMC) and Ficoll/Lymphoprep, the settled red blood cell (RBC) layer containing granulocytes was treated with ACK lysis buffer (Gibco Cat #A10492-01) to lyse the RBC. After centrifugation at 1200 rpm for 10 minutes, the resulting cell pellet of polymorphonuclear leukocytes (PMNs) was resuspended in RPMI containing 1% newborn calf serum (NBCS). These cells were seeded in a 96-well plate at a density of 50,000 cells/well and treated with different concentrations of the test samples. Cells with 0.2% DMSO served as vehicle control. The plate was incubated in a CO2 incubator at 37° C. for 2 hrs. Finally, the cells treated with test samples were induced with 10 μM A23187 for 10 minutes at 37° C. in a CO2 incubator. The cells treated with only A23187 served as induction control. The plate was centrifuged at 1200 rpm for 5 minutes, and 120 μL cell-free supernatants were collected. Quantitation of LTB4 was performed using an ELISA kit (R&D Systems, Cat #SKGE006B) following the manufacturer's instructions. Absorbance was measured at 450 nm with a correction wavelength of 570 nm in a plate reader (Spectramax2e, Molecular Devices, USA). The reduction of LTB4 production was calculated using the following formula. % reduction of LTB4=[(Normalized Conc. of LTB4 in Induction)−(Normalized Conc. of LTB4 in Test sample)]/(Normalized Conc. of LTB4 in Induction)×100 The results are presented in tables: 3-5.

The nature of data set [2]: Solubility in water of potassium or sodium salts of AKBA. The format is physicochemical. Particulars: volume of water needed to completely dissolve 1.0 g; room temperature (RT). Here is the method: (§1) These potassium or sodium salts of AKBA were evaluated for their solubility in water and determined their pH.
Data set [3] relates to Prostaglandin E2 (PGE2) production. Nature of the data set: Assay for Prostaglandin E2 (PGE2) inhibition in LPS-induced peripheral blood mononuclear cells (PBMC). Type of data set: cell-based. Particulars: LPS 10 ng/mL induction; for % Inhibition of PGE2: human PBMC. Here is the method: Human blood was collected from healthy volunteers from a peripheral vein with a syringe containing EDTA at a final concentration of 2 mM. Plasma was separated by centrifugation at 1000 rpm for 10 minutes, and the residual blood was diluted with RPMI medium supplemented with 10% FBS and 2 mM EDTA in a ratio of 1:3. Thirty milliliters of blood was carefully layered onto the 15 mL of Ficoll/Lymphoprep in a 50 mL falcon tube, and tubes were centrifuged at 350×g for 30 minutes at an acceleration of 9 without using the brake. Buffy coat (interface between medium and Ficoll) containing peripheral blood mononuclear cells (PBMC) was collected carefully in 25 mL of cold 1× phosphate-buffered saline (PBS) and centrifuged at 1200 rpm for 10 minutes. Residual RBCs found in PBMCs pellet were removed by treating with ACK lysis buffer (Gibco Cat #A10492-01) and washed with fresh 1×PBS. PBMC were seeded in a 96-well plate with a density of 0.1×10^6 cells/well and treated with different concentrations of test samples. Cells with 0.2% DMSO served as vehicle control. The plate was incubated in a CO2 incubator at 37° C. for 2 hrs. Finally, cells were induced with LPS (10 ng/mL final concentration) for 4 hours except for vehicle control by keeping the plate at 37° C. in a CO2 incubator. The plate was centrifuged at 1200 rpm for 5 minutes, and 120 μL cell-free supernatants were collected. Quantitation of PGE2 was performed using an ELISA kit (Cayman Chemicals Cat #514010) according to the manufacturer's instructions. Absorbance was measured at 412 nm in a kinetic mode for 30 minutes in a microplate reader (Spectramax2e, Molecular Devices, USA). Percent Inhibition of PGE2 was calculated using the following formula. % Inhibition of PGE2=(Normalized conc. of PGE2 in Induction)−(Normalized conc. of PGE2 in Test sample)/×100 • (Normalized conc. of PGE2 in Induction)
The normalized PGE2 concentration in the LPS induced or the treated wells were obtained from deducting the […].

Another data set is described as follows: pH of 1% solution. Type of data set: physicochemical. The protocol: as §1
The next data set concerns C-reactive protein (CRP). Briefly: Reduction of C-Reactive Protein (CRP) in muscle, exercise-induced DOMS model of rats. Type of data set: in vivo, Sprague Dawley rats. Particulars: 25 mg/kg for seven days; for Mean CRP conc.: EDL muscle tissue lysate; for % reduction of CRP from normal control: EDL muscle. The protocol:
On day 1 of the study, male Sprague Dawley rats (8-12 weeks) were randomized into seven groups, each group contained seven animals. Basal readings (Paw Withdrawal Threshold) of mechanical hyperalgesia (Electronic von Frey) were obtained. Animals were dosed with either 25 mg/kg of the test items or vehicle (0.5% CMC-Na) for seven days. On day 5, Delayed Onset of Muscle Soreness (DOMS) was induced by introducing the animals to downhill treadmill running task (rate, 15 m/min; time, 5 min; incline, −20° followed by a 1-min rest, repeated 18 times) for 90 min or till exhaustion. Paw Withdrawal Threshold (PWT) was measured at 1 h, 4 h, 24 h (day 6) and 48 h (day 7) post to eccentric exercise and the exploratory behavior measurements were taken at 1 h and 4 h post to DOMS induction. Terminal necropsy was performed after euthanizing the animals under CO2 asphyxiation.
Small pieces of the extensor digitorum longus (EDL) muscles were macerated in liquid nitrogen (LN2) and homogenized in a tissue lysis buffer [50 mM Tris-HCl (pH 7.4), 150 mM NaCl, 5 mM EDTA, 0.5% sodium dodecyl sulfate (SDS), 1% deoxycholate, 0.1% Triton X-100, 1% Nonidet P-40 (NP-40), 0.05% mercaptoethanol, 10 mg/ml PMSF, 0.5 mg/ml leupeptin, 0.2 mg/ml aprotinin, and 1 mM Na3VO4]. The homogenate was centrifuged at 18928 g for 25 min at 4° C., and the supernatant was collected. Protein concentrations of the tissue lysates were determined using BCA protein assay kit (Thermo Fisher, Rockford, IL). C-reactive protein (CRP) concentrations in the muscle tissue lysates were determined using a commercial kit (Rat CRP/C-Reactive Protein ELISA Kit, Sigma, Cat #RAB0097) following the manufacturer's instructions, where the samples were diluted with assay buffer (1:10000) and performed the assay. The amount of CRP present in the tissue lysates was calculated and expressed as nanogram (ng) per milligram of protein. The reduction of CRP concentration in the muscle samples in the treated groups was calculated using the following formula.

The source of these data is patent publication US12576060B2, “Water soluble 3-O-acetyl-11-keto-β-boswellic acid and metal ion compositions, process for their preparation and uses thereof” (LAILA NUTRA PRIVATE LIMITED, priority 2020, dated 2026).

Where “and” joins values, the source holds several entries; their conditions need not be identical. Identical values can stand only once.

Take `CC(=O)O[C@@H]1CC[C@@]2(C)[C@@H](CC[C@]3(C)[C@@H]2C(=O)C=C2[C@@H]4[C@@H](C)[C@H](C)CC[C@]4(C)CC[C@]23C)[C@@]1(C)C(=O)O` [LN03, 3-O-acetyl-11-keto-β-boswellic acid]: the “% reduction of LTB4” value was determined as 16.72% in data set [1] (1.0 μg/mL) and 26.83% in data set [1] (2.5 μg/mL). Further, the “Solubility of 1.0 g of product in water” value in data set [2] is above 1000 mL. The “% Inhibition of PGE2” value was determined as 15.02% in data set [3] (1.0 μg/mL) and 26.28% in data set [3] (2.5 μg/mL). Further, the “pH (1% solution)” value in the data set “pH of 1% solution” stood at 6.63. In the data set on C-reactive protein (CRP), the “Mean CRP conc.” value is 65.44 ng/mg of protein. In addition, in the data set with C-reactive protein (CRP), the “% reduction of CRP from normal control” value is recorded as 40.60%.

Broadly, the inhibition is the relative decrease from the control value, in per cent. As for `CC(=O)O[C@@H]1CC[C@@]2(C)[C@@H](CC[C@]3(C)[C@@H]2C(=O)C=C2[C@@H]4[C@@H](C)[C@H](C)CC[C@]4(C)CC[C@]23C)[C@@]1(C)C(=O)O` [LN04, 3-O-acetyl-11-keto-β-boswellic acid], the “% reduction of LTB4” value came out at 16.03% in data set [1] (1.0 μg/mL) and 28.71% in data set [1] (2.5 μg/mL). Further, in data set [2], the “Solubility of 1.0 g of product in water” value is above 1000 mL. In data set [3] (Homo sapiens, PBMC, 1.0 μg/mL), the inhibition at 1 µg/mL worked out at 17.2%. Also, the inhibition at 2.5 µg/mL in data set [3] (Homo sapiens, PBMC, 2.5 μg/mL) amounted to 20%. Further, the “pH (1% solution)” value in the data set “pH of 1% solution” was found to be 6.64.

With `[Cl-].[K+]` [LN11, potassium chloride], in the data set on C-reactive protein (CRP), the “Mean CRP conc.” value is recorded as 78.21 ng/mg of protein and the “% reduction of CRP from normal control” value was 10.23%.

Take `[Cl-].[Na+]` [LN12, sodium chloride]: in the data set on C-reactive protein (CRP), the “Mean CRP conc.” value is recorded as 78.04 ng/mg of protein and the “% reduction of CRP from normal control” value worked out at 10.64%.

On to “potassium salt or complex or chelate of 3-O-acetyl-11-keto-β-boswellic acid [LN05]”, for which the “% reduction of LTB4” value in data set [1] (1.0 μg/mL) came to 21.95%; in data set [1] (2.5 μg/mL), 57.57%. Also, the “% Inhibition of PGE2” value in data set [3] (1.0 μg/mL) was found to be 24.42%; in data set [3] (2.5 μg/mL), 42.29%. Moreover, in the data set “pH of 1% solution”, the “pH (1% solution)” value came to 9.24.

For “potassium salt or complex or chelate of 3-O-acetyl-11-keto-β-boswellic acid [LN07]”, the “% reduction of LTB4” value in data set [1] (1.0 μg/mL) is 20.26%; in data set [1] (2.5 μg/mL), 55.85%. In addition, the “Solubility of 1.0 g of product in water” value in data set [2] stood at 60 mL. The results for the “% Inhibition of PGE2” value in data set [3] (1.0 μg/mL) and in data set [3] (2.5 μg/mL) were 26.50% and 49.08%, respectively. In addition, in “pH of 1% solution”, the “pH (1% solution)” value is listed as 9.21. Further, the “Mean CRP conc.” value in the data set with C-reactive protein (CRP) is 56.97 ng/mg of protein. Also, the “% reduction of CRP from normal control” value in the data set with C-reactive protein (CRP) came out at 60.75%.

As to “sodium salt of 3-O-acetyl-11-keto-β-boswellic acid [LN06]”, the “% reduction of LTB4” value in data set [1] (1.0 μg/mL) was 20.16%; in data set [1] (2.5 μg/mL) it was 47.97% and 47.87%. In addition, the “Solubility of 1.0 g of product in water” value in data set [2] was determined as 80 mL. Also, the “% Inhibition of PGE2” value in data set [3] (1.0 μg/mL) was found to be 25.64%; in data set [3] (2.5 μg/mL), 41.23%. Further, the “pH (1% solution)” value in the data set “pH of 1% solution” is on record as 9.27.

In the case of “sodium salt of 3-O-acetyl-11-keto-β-boswellic acid [LN08]”, the “% reduction of LTB4” value is 21.66% in data set [1] (1.0 μg/mL) and 46.10% in data set [1] (2.5 μg/mL). The “% Inhibition of PGE2” value was 25.61% in data set [3] (1.0 μg/mL) and 47.56% in data set [3] (2.5 μg/mL). Moreover, the “pH (1% solution)” value in the data set “pH of 1% solution” worked out at 8.74. Also, the “Mean CRP conc.” value in the data set on C-reactive protein (CRP) is 58.99 ng/mg of protein. Moreover, the “% reduction of CRP from normal control” value in the data set with C-reactive protein (CRP) came to 55.94%.
